The values below come from patent US20080119548A1, “Control Of Feeding Behavior By Changing Neuronal Energy Balance” (priority 2004, published 2008).

Experiment [1] can be described thus: Changes in bodyweight 24 hr after i.c.v. injection. In kind it is in vivo, mice. As to conditions: C75 10 μg i.c.v. From the text: (d) Changes in bodyweight 24 hr after i.c.v. injection of C75, AICAR or compound C (n=4-10). Mice were implanted with permanent stainless steel cannulae into the lateral ventricle of the brain 0.6 mm caudal to Bregma, 1.2 mm lateral to the midline, and sunk to a depth of 2.2 mm below the surface of the skull. Implanted mice were housed in individual cages and utilized for i.c.v. and i.p. injections as indicated. C75 dissolved in RPMI1640 (Gibco-BRL), AICAR (Toronto Research Chemicals Inc) or compound […], Inc.) in saline was injected i.c.v., such that desired dose could be administered in a volume of 2.5 μl, while control groups received vehicle only. Injections were done immediately preceding dark onset and food intake measurements were taken at 1 hr (0-1 hr interval), 3 hr (1-3 hr interval), and 24 hr (3-24 hr interval) after dark onset. […]. treatment groups were i.p. injected with 5 mg/kg bodyweight C75 dissolved in […] of glucose-free RPMI 1 hr before the dark onset, followed by 3 μg/2.5 μl saline i.c.v. AICAR immediately preceding the dark onset. Control groups received 200 μl of glucose free RPMI 1 hr before lights off and 2.5 μl of saline. Administration of i.p. compound C (10 or 30 mg/kg bodyweight) or C75 (10 mg/kg bodyweight) was followed by food intake measurement at the same times indicated.

For a further experiment, the system named is BALB/c male mice. As to the kind of experiment: Measurement of food intake after i.c.v. or i.p. injection. Format: in vivo. As to the method: Male BALB/c mice (7-9 weeks) were purchased from Charles River Laboratories (and housed in a controlled-light (12 hr light/12 hr dark cycle) environment (lights on 0200-1400 h) and allowed ad libitum access to standard laboratory chow and water. For fasting, food was withdrawn from cage at the onset of the dark cycle for 24 hr, but ad libitum access to water was allowed.
Mice were implanted with permanent stainless steel cannulae into the lateral ventricle of the brain 0.6 mm caudal to Bregma, 1.2 mm lateral to the midline, and sunk to a depth of 2.2 mm below the surface of the skull. Implanted mice were housed in individual cages and utilized for i.c.v. and i.p. injections as indicated. C75 dissolved in RPMI1640 (Gibco-BRL), AICAR (Toronto Research Chemicals Inc) or compound C (46) (FASgen, Inc.) in saline was injected i.c.v., such that desired dose could be administered in a volume of 2.5 μl, while control groups received vehicle only. Injections were done immediately preceding dark onset and food intake measurements were taken at 1 hr (0-1 hr interval), 3 hr (1-3 hr interval), and 24 hr (3-24 hr interval) after dark onset. C75 i.p./AICAR i.c.v. treatment groups were i.p. injected with 5 mg/kg bodyweight C75 dissolved in […] of glucose-free RPMI 1 hr before the dark onset, followed by 3 μg/2.5 μl saline i.c.v. AICAR immediately preceding the dark onset. Control groups received 200 μl of glucose free RPMI 1 hr before lights off and 2.5 μl of saline. Administration of i.p. compound C (10 or 30 mg/kg bodyweight) or C75 (10 mg/kg bodyweight) was followed by food intake measurement at the same times indicated.

The test system of experiment [2] is lean, diet-induced obese (DIO), and genetically obese (ob/ob) mice. As to conditions: cited from earlier work.
The next experiment relates to pAMPKα. As to the kind of experiment: Immunohistochemistry of pAMPKα in the arcuate nucleus. Format: in vivo. Conditions: C75-treated (24 hr) mice. As to the method: Free-floating sections were blocked in PBS containing 5% goat serum, 0.1% BSA, 0.05% Triton-X100, 1 mM NaF for 1 hr at room temperature and incubated with anti-phospho-AMPKα (α1 and α2) antibody (1:100) or anti-phospho-CREB antibody (1:500, Cell Signaling) in PBS containing 1% goat serum, 0.1% BSA, 0.05% Triton-X100, 1 mM NaF overnight at 4° C. Signal was visualized by Vectastain ABC kit (Vector).
Images of in situ hybridization and immunohistochemistry were visualized using an Axiocam HRc digital camera (Carl Zeiss) and images were acquired using Improvision Openlab software, and quantified by NIH Image program (Macro).

Experiment [3] deals with hypothalamic AMPKα (α1 and α2). The experiment can be described thus: Western blot of phosphorylated AMPKα in hypothalamus. In kind it is in vivo, mice. Conditions: for reduction of levels of pAMPKα (α1 and α2) in the hypothalamus vs vehicle: C75 i.c.v. (5 μg or 10 mg). As to the method:
Hypothalami were dissected using as landmarks the optic chiasm rostrally, and the mammillary bodies caudally to a depth of 2 mm. Dissected hypothalamic and liver tissue were immediately frozen in liquid nitrogen. Tissues were homogenized in 200 μl of lysis buffer (50 mM Tris-HCl, pH 7.5, 250 mM sucrose, 5 mM sodium pyrophosphate, 50 mM NaF, 1 mM EDTA, 1 mM EGTA, 1 mM DTT, 0.5 mM PMSF, 0.1 mM benzamidine, 50 μg/ml leupeptin, 50 μg/ml soybean trypsin inhibitor). SDS detergent was added to a final 0.2%, and lysates were boiled for 5 min. After the supernatant was harvested, protein concentration was determined by BCA kit (Bio Rad). Phosphorylation of AMPKα was determined on a 4-15% gradient SDS-polyacrylamide gel using anti-phospho-AMPKα (α1 and α2, Thr172) antibody (1:1000, Cell Signaling). Anti-AMPKαt antibody (α1 and α2, 1:1000, Cell Signaling) was used as a loading control.
In general terms: A western blot detects proteins with antibodies after separation by electrophoresis.

Experiment [4] deals with primary hypothalamic neurons. As to the kind of experiment: ATP measurement in primary hypothalamic neuron cultures. Format: cell-based, Sprague-Dawley rats. Here is the method: Hypothalami were dissected from E17 Sprague-Dawley rats (Harlan), and dissociated by trypsin (0.125%)-DNA (0.001%) solution and trituration as described by Landree, et al., J. Biol. Chem., 279, 3817-3827. Cells were plated at 6×10^4 on poly-D-lysine coated 96 well plates (Corning Inc.) in neurobasal medium supplemented with B27, 0.5 mM L-glutamine, 1% penicillin-streptomycin (Gibco-BRL). To limit nonneuronal cell proliferation, cells were treated with cytosine arabinoside furanoside (1 μM) on day 4 after plating and 6-8 days-old cells were assayed for ATP. Hypothalamic neurons were lysed in TE (100 mM Tris-HCl, pH 7.4, 4 mM DTA), and ATP levels were measured within the linear range using the ATP BioLuminescence Kit CLSII (Roche) by following the manufacture's recommendation. Data were analyzed by a Perkin-Elmer Victor^2 1420.

As to `C=C1C(=O)OC(CCCCCCCC)C1C(=O)O` (stereo not drawn) [C75], the bodyweight result in experiment [1] was “reduction in body weight”. The “reduction in food intake over 24 hr” value worked out at 20.3% in the experiment on BALB/c male mice (C75 5 mg i.c.v., p<0.05) and 37.7% in the experiment with BALB/c male mice (C75 10 mg i.c.v., p<0.01). In addition, the “food intake at 1 hr, % of control (RPMI/saline)” value with BALB/c male mice (C75 5 mg/kg bodyweight i.p. 1 hr before dark onset, saline i.c.v., p<0.01) was 37.5 % of control. The “food intake, % of control” value is recorded as 8.3 % of control in the experiment with BALB/c male mice (C75 10 mg/kg bodyweight i.p., 0-1 hr); 23.3 % of control with BALB/c male mice (C75 10 mg/kg bodyweight i.p., 1-3 hr); 30.1 % of control in the experiment with BALB/c male mice (C75 10 mg/kg bodyweight i.p., 3-24 hr). For the same compound, the “total 24 hr-food consumption, % of control” value in the experiment with BALB/c male mice (C75 10 mg/kg bodyweight i.p., total 24 hr, p<0.001) is 26.3 % of control. Besides, the “food intake during the 1-3 and 3-24 hr time intervals” value in the experiment with BALB/c male mice (C75 i.c.v., dose-dependent) is “significantly reduced food intake”. Further, in experiment [2], the “weight loss and anorexia” value is “profound weight loss and anorexia”. Besides, the “pAMPKa-immunoreactivity in the arcuate nucleus, % of control” value with pAMPKα is given as 12 % of control. Further, the “level of hypothalamic pAMPKα in fasted mice” value in experiment [3] (24 hr fasting, then C75 i.p. (10 mg/kg bodyweight), vs RPMI control) is “profoundly reduced”. The “levels of pAMPKα in the hypothalamus” value in experiment [3] (C75 10 mg/kg body weight i.p., 30 min and 3 hr) was “significantly reduced”. Moreover, the “reduction of levels of pAMPKα (α1 and α2) in the hypothalamus vs vehicle” value is “three” in experiment [3] (30 min) and “six-fold” in experiment [3] (3 hr). The “hypothalamic pAMPKα level” value in experiment [3] (i.p. C75 and i.c.v. saline, 30 min after i.c.v. injection) was “profound decrease”. The “neuronal ATP levels, % of control” value in experiment [4] (40 mg/ml C75, 30 min) is reported as 118 % of control; in experiment [4] (40 mg/ml C75, 2 hr), 128 % of control.
